Among the data in PMC5738443, “Peptide aptamer-modified single-walled carbon nanotube-based transistors for high-performance biosensors” (Scientific Reports, 2017) are Kd values, retold here.

The target in experiment [1] is T1, Cathepsin E (CatE) (Homo sapiens, UniProt P14091).
T1 construct: purchased BioVision, Inc. (CA, USA)
T1 sequence (P14091 54-396): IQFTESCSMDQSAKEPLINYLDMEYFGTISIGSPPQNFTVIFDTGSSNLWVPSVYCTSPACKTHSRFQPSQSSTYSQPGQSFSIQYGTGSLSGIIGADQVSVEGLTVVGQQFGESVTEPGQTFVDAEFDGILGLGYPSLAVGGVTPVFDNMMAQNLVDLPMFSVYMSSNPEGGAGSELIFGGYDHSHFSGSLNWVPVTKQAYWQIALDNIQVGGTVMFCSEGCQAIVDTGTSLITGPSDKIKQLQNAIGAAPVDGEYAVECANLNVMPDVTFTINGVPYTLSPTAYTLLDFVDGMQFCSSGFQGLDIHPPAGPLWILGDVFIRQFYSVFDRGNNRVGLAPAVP
As to the kind of experiment: CatE detection in PBS with peptide aptamer-modified liquid-gated SWCNT FET. Format: binding. The note with it: aptamer on SWCNT FET via PBASE; CatE 0.1 to 1 ng/mL in 1× PBS pH 10, 10 min, 25 °C; measured in 0.0005× PBS pH 4, -0.6 V; read-out: Kd (Langmuir isotherm fit of FET response). As to the method:
The peptide aptamer was immobilized onto the SWCNT channel via the PBASE linker prior to the capture of CatE. Next, the sensor was exposed to 0.0005× PBS pH 4 for electrical measurements. […] The transfer curve of the SWCNT FET initially shifted toward the negative bias direction after the immobilization of the peptide aptamer. With increasing CatE concentrations from 0.1 to 0.6 ng/mL, the curve further shifted toward the same direction. This phenomenon is attributed to the positively charged CatE molecules at PBS pH 4 (the isoelectric point of CatE is 4.69) inducing the gradual reduction of hole carriers in the SWCNT channel via a field effect. At concentrations greater than this concentration, the shift of the transfer curve is no longer observed because all peptide aptamer probe molecules are occupied by CatE molecules. The relative decrease in the “on” current (∆I/∆Imax), where ∆Imax represents the decrease in “on” current at a saturation level due to the interaction between CatE and peptide aptamer-modified SWCNT FETs, at a top liquid-gated voltage of −0.6 V was plotted as a function of CatE concentration, as shown in Fig. 5b. […]
We measured the transfer characteristics of the fabricated sensor using a top liquid-gated scheme in 0.0005× PBS pH 4. […]

Experiment [2] addresses T1, Cathepsin E (CatE). As to the kind of experiment: SPR analysis (Biacore X100) of peptide aptamer binding to Cathepsin E. The note with it: Biacore X100, CM5 chip, aptamer immobilized via C-terminal biotin-streptavidin, 1000 RU; single-cycle, CatE 858.37-1.37 ng/mL; steady-state affinity; read-out: dissociation constant (Kd). The text has this: CatE is composed of an in vitro-selected peptide aptamer (24 amino acids comprising two peptide blocks of 12- and 8-amino acids paired by a 4-amino acid linker) and a short alpha-strand peptide scaffold (7-amino acids). A Biacore X100 instrument was used to characterize the binding features of the peptide aptamer to CatE. A free N-terminal end of the peptide aptamer is necessary for its correct folding as a basis for the formation of the binding complex with the target. Therefore, the C-terminal end of the peptide aptamer with biotin-streptavidin chemistry was immobilized onto a CM5 sensor chip, and then CatE was injected as the analyte across this surface for interaction with the peptide aptamer. […] The dissociation constant (Kd) for the CatE was calculated as 0.954 ± 0.067 nM.
Figure 3 Peptide aptamer characterization. […] The data for the steady-state affinity binding plot were calculated from the end of the association phases against the analyte concentration. […]
A novel peptide aptamer that specifically recognizes CatE was engineered via systemic in vitro evolution. […] A steady-state affinity binding plot was calculated from the end of the association phases against the analyte concentration.

pKd: −log10 of the molar value. Residues, ends and D or L forms follow the SMILES beside them.

Broadly, the pKd is the negative decadic logarithm of the Kd, by convention in mol/L. On to `CC[C@H](C)[C@H](NC(=O)CNC(=O)CNC(=O)[C@H](CS)NC(=O)[C@@H](N)CO)C(=O)N[C@H](C(=O)N[C@H](C(=O)N[C@H](C(=O)N[C@@H](CO)C(=O)N[C@@H](CS)C(=O)N[C@H](C(=O)N[C@@H](C)C(=O)N[C@H](C(=O)N[C@H](C(=O)N[C@@H](CO)C(=O)N[C@@H](CC(C)C)C(=O)N[C@H](C(=O)N1CCC[C@H]1C(=O)NCC(=O)N[C@@H](CCCNC(=N)N)C(=O)N[C@H](C(=O)NCC(=O)N[C@@H](CS)C(=O)N[C@H](C(=O)N[C@@H](CCCNC(=N)N)C(=O)N[C@@H](C)C(=O)N[C@@H](CCCCN)C(=O)N[C@@H](C)C(=O)N[C@@H](C)C(=O)N[C@@H](C)C(=O)N[C@@H](CCCCN)C(=O)O)[C@@H](C)CC)[C@@H](C)CC)[C@@H](C)CC)[C@@H](C)CC)C(C)C)[C@@H](C)CC)[C@@H](C)CC)[C@@H](C)CC)[C@@H](C)CC` [peptide aptamer] (H-SCGGIIIISCIAVISLIPGRIGCIRAKAAAK-OH), for which the pKd was 11.56 in experiment [1] and 9.02 in experiment [2].
